The record followed here is US5919824A, “Aminophenol derivatives” (Daiichi Pharmaceutical Co., Ltd., priority 1995, dated 1999).

The IC50 is the midpoint of a concentration-inhibition curve. A lower IC50 goes with inhibition by little substance.

The target of experiment [1] is T1, human CCK-B/gastrin receptor (Homo sapiens, UniProt P32239).
T1 construct: expressed in transfected cells; host or cells: CHO cells (Chinese hamster ovary)
T1 sequence (P32239 1-447): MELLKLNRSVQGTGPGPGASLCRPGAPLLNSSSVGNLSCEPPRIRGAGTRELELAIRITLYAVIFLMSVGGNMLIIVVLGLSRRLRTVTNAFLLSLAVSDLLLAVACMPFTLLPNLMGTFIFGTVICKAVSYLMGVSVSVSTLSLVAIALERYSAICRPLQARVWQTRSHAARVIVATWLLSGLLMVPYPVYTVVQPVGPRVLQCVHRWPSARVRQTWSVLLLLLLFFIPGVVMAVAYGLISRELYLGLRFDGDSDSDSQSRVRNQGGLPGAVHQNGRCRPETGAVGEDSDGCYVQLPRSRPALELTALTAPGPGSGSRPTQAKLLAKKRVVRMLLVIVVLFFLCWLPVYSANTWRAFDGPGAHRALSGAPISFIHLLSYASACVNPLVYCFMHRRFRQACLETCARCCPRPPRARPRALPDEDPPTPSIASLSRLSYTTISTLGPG
The experiment can be described thus: Inhibition of binding against gastrin receptor (125I-gastrin, CHO cells). Particulars: [125I]gastrin 25 pM, CHO cells expressing human CCK-B/gastrin receptor, 37° C. As for the experimental part: (§1) Separation of human CCK-B/gastrin receptor cDNA clone, separation of human CCK-A receptor cDNA clone, and expression of respective cloned receptors in heterologous cells.
(§2) cDNA of human CCK-B/gastrin receptor cDNA (Pisegna et al.: Biochem. Biophys. Res. Commun., 189, 296-303, 1992) and human CCK-A receptor cDNA (Ulrich et al.: Biochem. Biophys. Res. Commun., 193, 204-211, 1993) have already been isolated. The cDNAs having the reported nucleotide sequences were prepared using routine genetic engineering techniques. The isolated human CCK-B/gastrin receptor cDNA or human CCK-A receptor cDNA was integrated in an expression vector using routine genetic engineering techniques and transfected to CHO cells derived from the Chinese hamster ovary so as to induce expression of respective receptors.
The compounds of the present invention were evaluated by the receptor-binding assay using ^125 I-gastrin and human CCK-B/gastrin receptor expressed in CHO cells. CHO cells expressing the human CCK-B/gastrin receptor were cultured using a Dulbecco's modified Eagle minimum essential medium: nutrient mixture F-12 (hereinafter abbreviated as DMEM/F-12) containing 10% fetal bovine serum at 37° C. in an aerobic phase of 5% CO2 and 95% air. Using a culture dish having a diameter of 16 mm (base area: 2 cm^2), the cells were cultured so as to obtain 5×10^5 cells. The cells were washed with a binding buffer (Earle's balanced salt solution containing 10 mM 4-(2-hydroxyethyl)-1-piperazine ethanesulfonic acid (HEPES) (pH 7.4), 0.1% bovine serum albumin, 2 mM glutamine, and 0.22% sodium hydrogen carbonate) twice, after which a binding buffer (0.5 ml) was added to the dish. To this binding buffer, a test compound (5 μl) dissolved in dimethylsulfoxide (DMSO) was added. The reaction was then allowed to start by adding 0.01 ml (final concentration: 25 pM) of [^125 I]gastrin. When a nonspecific binding amount was obtained, reaction was carried out in the presence of 1 μM of non-labelled gastrin. Reaction was allowed to proceed at 37° C. in an aerobic phase of 5% CO2 and 95% air, after which the cells were washed with phosphate-buffered saline (PBS). [^125 I]gastrin which had not been bound to the cells was removed, and the cells were lysed by adding 1% Triton X-100 (250 μl) to the dish. Radioactivity of this solution was measured by a gamma counter. A specific binding amount was obtained by subtracting a nonspecific binding amount from a total binding amount. Using the thus-obtained specific binding amount, the percentage of the value obtained from a test substance addition group with respect to that of the DMSO addition group was calculated. The percentage was subjected to Hill conversion and then a least squares method, obtaining a 50% inhibitory concentration (IC50).

Experiment [2] has as its target T2, human CCK-A receptor (Homo sapiens, UniProt P32238).
T2 construct: expressed in transfected cells; host or cells: CHO cells (Chinese hamster ovary)
T2 sequence (P32238 1-428): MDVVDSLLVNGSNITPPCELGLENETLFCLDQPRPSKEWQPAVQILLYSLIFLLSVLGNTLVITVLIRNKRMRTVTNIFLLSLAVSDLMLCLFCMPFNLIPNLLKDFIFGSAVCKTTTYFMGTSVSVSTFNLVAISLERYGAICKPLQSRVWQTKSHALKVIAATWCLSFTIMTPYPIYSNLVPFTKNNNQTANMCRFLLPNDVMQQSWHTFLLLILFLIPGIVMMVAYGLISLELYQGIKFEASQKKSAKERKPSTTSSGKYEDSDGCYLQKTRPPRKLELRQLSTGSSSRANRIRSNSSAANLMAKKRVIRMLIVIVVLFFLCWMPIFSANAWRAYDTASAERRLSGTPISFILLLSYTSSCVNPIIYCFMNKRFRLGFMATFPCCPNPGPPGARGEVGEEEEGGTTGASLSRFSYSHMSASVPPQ
Nature of the experiment: Inhibition of binding against CCK-A receptor (125I-CCK8, CHO cells). Particulars: for receptor selectivity (IC50 ratio of CCK-A/gastrin): factor; for IC50: [125I]CCK8 25 pM, CHO cells expressing human CCK-A receptor, 37° C. The method, then:
as §1, §2
Test method: The compounds of the present invention were evaluated by the receptor-binding assay using ^125 I-gastrin and human CCK-B/gastrin receptor expressed in CHO cells. CHO cells expressing a human CCK-A receptor were cultured using a DMEM/F-12 containing 10% fetal bovine serum at 37° C. in an aerobic phase of 5% CO2 and 95% air. Using a culture dish having a diameter of 16 mm (base area: 2 cm^2), the cells were cultured so as to obtain 5×10^5 cells. The cells were washed with a binding buffer (Earle's balanced salt solution containing 10 mM HEPES (pH 7.4), 0.1% bovine serum albumin, 2 mM glutamine, and 0.22% sodium hydrogen carbonate) twice, after which a binding buffer (0.5 ml) was added to the dish. To this binding buffer, a test compound (5 μl) dissolved in DMSO was added. The reaction was then allowed to start by adding 0.01 ml (final concentration: 25 pM) of [^125 I]CCK8. When a nonspecific binding amount was obtained, reaction was carried out in the presence of 1 μM of non-labelled CCK-8. Reaction was allowed to proceed at 37° C. in an aerobic phase of 5% CO2 and 95% air, after which the cells were washed with PBS. [^125 I]CCK8 which had not been bound to the cells was removed, and the cells were lysed by adding 1% Triton X-100 (250 μl) to the dish. Radioactivity of this solution was measured by a gamma counter. A specific binding amount was obtained by subtracting a nonspecific binding amount from a total binding amount. Using the thus-obtained specific binding amount, the percentage of the value obtained from a test substance addition group with respect to that of the DMSO addition group was calculated. The percentage was subjected to Hill conversion and then to a least squares method, obtaining a 50% inhibitory concentration (IC50).

In experiment [1], `COc1cccc(N(CC(=O)N(C)c2ccccc2)C(=O)CNC(=O)Nc2cccc(C(C)S(=O)(=O)O)c2)c1` (racemic) [Control compound A, potassium (±)-1-[3-[3-[N-(3-methoxyphenyl-N-(N-methyl-N-phenylcarbomoylmethyl)-carbamoylmethyl]ureido]phenylethane sulfonate, reference compound] registered an IC50 of 6.5 nM. For the same compound, in experiment [2], the “receptor selectivity (IC50 ratio of CCK-A/gastrin)” value stood at 238 and the IC50 amounted to 1.48 µM.

Compound `Cc1ccccc1N(C)C(=O)COc1cccc(N(CC(=O)N(C)c2ccccc2)C(=O)CNC(=O)Nc2cccc(C(C)C(=O)O)c2)c1` (racemic) [Example 79, (±)-2-[3-[3-[N-[3-[N-Methyl-N-(2-methylphenyl)carbamoylmethyloxy]phenyl]-N-(N-methyl-N-phenylcarbamoylmethyl)carbamoylmethyl]ureido]phenyl]propionic acid] came in with an IC50 in experiment [1] of 1.6 nM.

Turning to `COc1cccc(N(C)C(=O)COc2ccccc2N(CC(=O)N(C)c2ccccc2)C(=O)CNC(=O)Nc2cccc(C(C)C(=O)O)c2)c1` (racemic) [Example 86, (±)-2-[3-[3-[N-[2-[N-(3-Methoxyphenyl)-N-methylcarbamoylmethyloxy]phenyl]-N-(N-methyl-N-phenylcarbamoylmethyl)carbamoylmethyl]ureido]phenyl]propionic acid], the IC50 in experiment [1] is 1 nM.

For `Cc1cc(C)cc(N(C)C(=O)COc2ccccc2N(CC(=O)N(C)c2ccccc2)C(=O)CNC(=O)Nc2cccc(C(C)C(=O)O)c2)c1` (racemic) [Example 92, Sodium (±)-2-[3-[3-[N-[2-[N-methyl-N-(3,5-dimethylphenyl)carbamoylmethyloxy]phenyl]-N-(N-methyl-N-phenylcarbamoylmethyl)carbamoylmethyl]ureido]phenyl]sodium propionate], the figures for the IC50 in experiment [1] and in experiment [2] were 0.5 nM and 3.64 µM, respectively. Besides, the “receptor selectivity (IC50 ratio of CCK-A/gastrin)” value in experiment [2] was determined as 7280.

The compound `Cc1cccc(N(C)C(=O)COc2ccccc2N(CC(=O)N(C)c2ccccc2)C(=O)CNC(=O)Nc2cccc(CC(=O)O)c2)c1` [Example 73, 2-[3-[3-[N-[2-[N-Methyl-N-(3-methylphenyl)carbamoylmethyloxy]phenyl]-N-(N-methyl-N-phenylcarbamoylmethyl)carbamoylmethyl]ureido]phenyl]acetic acid] registered an IC50 in experiment [1] of 1.9 nM.

For the compound `COc1cccc(N(C)C(=O)COc2ccccc2N(CC(=O)N(C)c2ccccc2)C(=O)CNC(=O)Nc2cccc(CC(=O)O)c2)c1` [Example 87, 2-[3-[3-[N-[2-[N-(3-Methoxyphenyl)-N-methylcarbamoylmethyloxy]phenyl]-N-(N-methyl-N-phenylcarbamoylmethyl)carbamoylmethyl]ureido]phenyl]acetic acid], the IC50 in experiment [1] turned out to be 0.87 nM. In addition, in experiment [2], the “receptor selectivity (IC50 ratio of CCK-A/gastrin)” value was 3654 and the IC50 amounted to 3.18 µM.
